Values quoted from earlier work, collected in PubChem BioAssay AID1259409 (Chemical Carcinogenesis Research Information System (CCRIS), 2018).

Test system: rodent chemically induced tumor inhibition, incidence and multiplicity
Assay: CCRIS tumor inhibitor studies
Details: Dose [Inhibitor]: 0, Route [Inhibitor]: ORAL, Species: RAT, Promoter: NONE USED

## CCOC1=C(O)C(=O)O[C@@H]1[C@@H](O)CO
Carcinogen: 2-AMINO-1-METHYL-6-PHENYLIMIDAZO[4,5-B]PYRIDINE, 105650-23-5, 1% IN DIET FOR 52 WK CONCURRENTLY WITH CARCINOGEN TREATMENT (STUDY DURATION: 52 WK), Strain/Sex: F344/FEMALE, Target Tissue: Type of Lesion: LARGE INTESTINE: ADENOMA OR CARCINOMA, Dose [Carcinogen]: 0.02% IN DIET FOR 52 WK
  tumour outcome (control, treated, inhibition, significance): 2/18 (11%), 3/18 (17%), -55%, not significant
Carcinogen: 2-AMINO-1-METHYL-6-PHENYLIMIDAZO[4,5-B]PYRIDINE, 105650-23-5, 1% IN DIET FOR 52 WK CONCURRENTLY WITH CARCINOGEN TREATMENT (STUDY DURATION: 52 WK), Strain/Sex: F344/FEMALE, Target Tissue: Type of Lesion: MAMMARY GLAND: ADENOCARCINOMA, Dose [Carcinogen]: 0.02% IN DIET FOR 52 WK
  tumour outcome (control, treated, inhibition, significance): 8/20 (40%), 6/21 (29%), 28%, not significant
Carcinogen: DIETHYLNITROSAMINE, 55-18-5, N-METHYL-N-NITROSAUREA, 684-93-5, N-BUTYL-N-(4-HYDROXYBUTYL)NITROSAMINE, 3817-11-6, DIMETHY, Carcinogen: DIETHYLNITROSAMINE, 55-18-5, N-METHYL-N-NITROSAUREA, 684-93-5, N-BUTYL-N-(4-HYDROXYBUTYL)NITROSAMINE, 3817-11-6, DIMETHY, 1% IN THE DIET FOR 24 WK BEGINNING 1 DAY POST CARCINOGEN TREATMENT (STUDY DURATION: 28 WK), Strain/Sex: F344/MALE, Target Tissue: Type of Lesion: SMALL INTESTINE: ADENOMA, Dose [Carcinogen]: 100 MG/KG BW DEN ONCE FOLLOWED BY 20 MG/KG BW MNU 4 TIMES AND 0.05% BBN IN DRINKING WATER DURING FIRST 2 WK THEN 40 MG/K
  tumour outcome (control, treated, inhibition, significance): 33%, 13%, 60%, not significant
Carcinogen: DIETHYLNITROSAMINE, 55-18-5, N-METHYL-N-NITROSOUREA, 684-93-4, N-BUTYL-N-(4-HYDROXYBUTYL)NITROSAMINE, 3817-11-6, DIMETHY, Carcinogen: DIETHYLNITROSAMINE, 55-18-5, N-METHYL-N-NITROSOUREA, 684-93-4, N-BUTYL-N-(4-HYDROXYBUTYL)NITROSAMINE, 3817-11-6, DIMETHY, 1% IN THE DIET FOR 24 WK BEGINNING 1 DAY POST CARCINOGEN TREATMENT (STUDY DURATION: 28 WK), Strain/Sex: F344/MALE, Target Tissue: Type of Lesion: URINARY BLADDER: CARCINOMA, Dose [Carcinogen]: 100 MG/KG BW DEN ONCE FOLLOWED BY 20 MG/KG BW MNU 4 TIMES AND 0.05% BBN IN DRINKING WATER DURING FIRST 2 WK THEN 40 MG/K
  tumour outcome (control, treated, inhibition, significance): 7%, 0%, 100%, not significant
Carcinogen: DIETHYLNITROSAMINE, 55-18-5, N-METHYL-N-NITROSOUREA, 684-93-5, N-BUTYL-N-(4-HYDROXYBUTYL)NITROSAMINE, 3817-11-6, DIMETHY, Carcinogen: DIETHYLNITROSAMINE, 55-18-5, N-METHYL-N-NITROSOUREA, 684-93-5, N-BUTYL-N-(4-HYDROXYBUTYL)NITROSAMINE, 3817-11-6, DIMETHY, 1% IN DIET FOR 24 WK BEGINNING 1 DAY POST CARCINOGEN TREATMENT (STUDY DURATION: 28 WK), Strain/Sex: F344/MALE, Target Tissue: Type of Lesion: THYROID: CARCINOMA, Dose [Carcinogen]: 100 MG/KG BW DEN ONCE FOLLOWED BY 20 MG/KG BW MNU 4 TIMES AND 0.05% BBN IN DRINKING WATER DURING FIRST 2 WK THEN 40 MG/K
  tumour outcome (control, treated, inhibition, significance): 7%, 0%, 100%, not significant
Carcinogen: DIETHYLNITROSAMINE, 55-18-5, N-METHYL-N-NITROSOUREA, 684-93-5, N-BUTYL-N-(4-HYDROXYBUTYL)NITROSAMINE, 3817-11-6, DIMETHY, Carcinogen: DIETHYLNITROSAMINE, 55-18-5, N-METHYL-N-NITROSOUREA, 684-93-5, N-BUTYL-N-(4-HYDROXYBUTYL)NITROSAMINE, 3817-11-6, DIMETHY, 1% IN DIET FOR 30 DAYS BEGINNING 1 DAY PRIOR TO CARCINOGEN TREATMENT (STUDY DURATION: 28 WK), Strain/Sex: F344/MALE, Target Tissue: Type of Lesion: URINARY BLADDER: PAPILLOMA, Dose [Carcinogen]: 100 MG/KG BW DEN ONCE FOLLOWED BY 20 MG/KG BW MNU 4 TIMES AND 0.05% BBN IN DRINKING WATER DURING FIRST 2 WK THEN 40 MG/K
  tumour outcome (control, treated, inhibition, significance): 7%, 7%, 0%, not significant
Carcinogen: DIETHYLNITROSAMINE, 55-18-5, N-METHYL-N-NITROSOUREA, 684-93-5, N-BUTYL-N-(4-HYDROXYBUTYL)NITROSAMINE, 3817-11-6, DIMETHY, Carcinogen: DIETHYLNITROSAMINE, 55-18-5, N-METHYL-N-NITROSOUREA, 684-93-5, N-BUTYL-N-(4-HYDROXYBUTYL)NITROSAMINE, 3817-11-6, DIMETHY, 1% IN THE DIET FOR 24 WK BEGINNING 1 DAY POST CARCINOGEN TREATMENT ( STUDY DURATION: 28 WK), Strain/Sex: F344/MALE, Target Tissue: Type of Lesion: LARGE INTESTINE: CARCINOMA, Dose [Carcinogen]: 100 MG/KG BW DEN ONCE FOLLOWED BY 20 MG/KG BW MNU 4 TIMES AND 0.05% BBN IN DRINKING WATER DURING FIRST 2 WK THEN 40 MG/K
  tumour outcome (control, treated, inhibition, significance): 7%, 13%, -86%, not significant
Carcinogen: DIETHYLNITROSAMINE, 55-18-5, N-METHYL-N-NITROSOUREA, 684-93-5, N-BUTYL-N-(4-HYDROXYBUTYL)NITROSAMINE, 3817-11-6, DIMETHY, Carcinogen: DIETHYLNITROSAMINE, 55-18-5, N-METHYL-N-NITROSOUREA, 684-93-5, N-BUTYL-N-(4-HYDROXYBUTYL)NITROSAMINE, 3817-11-6, DIMETHY, 1% IN THE DIET FOR 24 WK BEGINNING 1 DAY POST CARCINOGEN TREATMENT (STUDY DURATION: 28 WK), Strain/Sex: F344/MALE, Target Tissue: Type of Lesion: LARGE INTESTINE: ADENOMA, Dose [Carcinogen]: 100 MG/KG BW DEN ONCE FOLLOWED BY 20 MG/KG BW MNU 4 TIMES AND 0.05% BBN IN DRINKING WATER DURING FIRST 2 WK THEN 40 MG/K
  tumour outcome (control, treated, inhibition, significance): 27%, 47%, -74%, not significant
